pIC50: −log10 of the molar value. Where a name gives a salt, the structure may show the parent alone.

The target in the assay is human recombinant H-PGDS (Homo sapiens, UniProt O60760). Briefly: Slightly modified h-PGDS TBA enzyme assay (Examples 529, 565, 566, 574-588 and 591). The class given is biochemical. As to conditions: slightly modified assay (Examples 529, 565, 566, 574-588 and 591); 1:40,000 human recombinant H-PGDS. How it is done: Prostaglandin D Synthase (PGDS) converts the substrate prostaglandin H2 (PGH2) to prostaglandin D2. The depletion of PGH2 was measured via an Fe(II) reduction of the remaining PGH2 to malondialdehyde (MDA) and 12-HHT. The enzyme assay is based on the quantitative formation of a fluorescent complex from the non-fluorescent compounds MDA and 2-thiobarbituric acid (TBA), substantially as described in U.S. patent application publication US-2004/152148 by Lombardt.
human recombinant H-PGDS, sequence (O60760 whole entry): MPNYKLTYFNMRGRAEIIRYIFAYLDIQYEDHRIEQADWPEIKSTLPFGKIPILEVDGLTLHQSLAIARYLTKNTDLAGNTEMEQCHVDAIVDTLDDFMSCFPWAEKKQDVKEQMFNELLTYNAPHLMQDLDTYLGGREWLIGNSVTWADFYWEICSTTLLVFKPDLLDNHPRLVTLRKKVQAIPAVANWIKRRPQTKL
Examples 529, 565, 566, 574-588 and 591 were tested in a slightly modified assay: The enzyme assay (30 μls during biological process) contained 100 mM Trizma pH 8.0, 100 μM MgCl2, 0.1 mg/ml IgG Rabbit serum, 5.0 μM PGH2 (Cayman; ethanol solution, #17020), 2.5 mM L-Glutathione (Sigma; reduced form #G4251), 1:40,000 human recombinant H-PGDS (from 1 mg/ml), 0.5% DMSO and inhibitor (varying concentration). 3 μls of diluted inhibitor (dissolved in DMSO) was plated into a 384-well assay plate followed by a 24 μl addition of an enzyme solution containing h-PGDS, Trizma, MgCl2, IgG and L-Glutathione. After pre-incubation of inhibitor and enzyme solution for 10 minutes at room temperature, the reaction was initiated with a 3 μl addition of substrate solution in 10 mM HCl. The reaction was terminated after 40 second by the addition of 3 μl stop buffer containing FeCl2 and citric acid. After addition of 45 μls of TBA plates were heated for one hour in a 70° C. oven. Plates were cooled at room temperature overnight and read on a plate reader the next day with excitation @ 530 nm and emission @ 560 nm. IC50's of inhibitors were calculated with a 4-parameter fit using 11 inhibitor concentrations in duplicate with ½ log serial dilutions. Controls on each plate included no inhibitor (zero % effect) and an inhibitor 500-fold in excess of its' IC50 (100% effect). The highest inhibitor concentration tested was typically 10 μM.
With `CC(C)(C)OC(=O)N1[C@@H]2CC[C@H]1C[C@@H](NC(=O)c1ccc(-c3cccc(F)c3)nc1)C2` [Example 586, tert-Butyl (3-endo)-3-({[6-(3-fluorophenyl)pyridin-3-yl]carbonyl}amino)-8-azabicyclo[3.2.1]octane-8-carboxylate], the pIC50 was 8.06.

For the molecule `CCNC(=O)c1ccc(-c2cccc(F)c2)nc1` [Example 580, N-Ethyl-6-(3-fluorophenyl)nicotinamide], the pIC50 is 6.65.

Take `O=C(N[C@H]1[C@@H]2CN(c3ncccn3)C[C@@H]21)c1ccc(-c2cccc(F)c2)nc1` [Example 529, 6-(3-Fluorophenyl)-N-[(1R,5S,6s)-3-pyrimidin-2-yl-3-azabicyclo[3.1.0]hex-6-yl]nicotinamide]: the negative logarithm of the IC50 (pIC50) is 7.95.

`CCOCCNC(=O)c1ccc(-c2cc(F)ccc2O)nc1` [Example 566, N-(2-Ethoxyethyl)-6-(5-fluoro-2-hydroxyphenyl)nicotinamide]: the pIC50 is 6.46.

For the molecule `O=C(CCNC(=O)c1ccc(-c2cccc(F)c2)nc1)N[C@H]1CC[C@H](O)CC1` [Example 582, 6-(3-Fuorophenyl)-N-{3-[(trans-4-hydroxycyclohexyl)amino]-3-oxopropyl}nicotinamide], the negative logarithm of the IC50 (pIC50) is 7.47.

Regarding `CC(C)(C)OC(=O)N1[C@@H]2CC[C@H]1C[C@H](NC(=O)c1ccc(-c3cccc(F)c3)nc1)C2` [Example 588, tert-Butyl (3-exo)-3-({[6-(3-fluorophenyl)pyridin-3-yl]carbonyl}amino)-8-azabicyclo[3.2.1]octane-8-carboxylate], the pIC50 is 7.81.

Take `O=C(N[C@H]1C[C@H]2CC[C@@H](C1)N2)c1ccc(-c2cccc(F)c2)nc1` [Example 584, N-[(3-endo)-8-azabicyclo[3.2.1]oct-3-yl]-6-(3-fluorophenyl)nicotinamide]: the pIC50 was 6.71.

Take `CCCNC(=O)c1ccc(-c2cccc(F)c2)nc1` [Example 576, 6-(3-Fluorophenyl)-N-propylnicotinamide]: the pIC50 was 7.03.

With `O=C(NCCN1CCCC1)c1ccc(-c2cccc(F)c2)nc1` [Example 574, 6-(3-Fluorophenyl)-N-(2-pyrrolidin-1-ylethyl)nicotinamide], the pIC50 is 5.92.

With `O=C(NCC1CC1)c1ccc(-c2cccc(F)c2)nc1` [Example 579, N-(Cyclopropylmethyl)-6-(3-fluorophenyl)nicotinamide], the pIC50 was 6.89.

`CNCCNC(=O)c1ccc(-c2cccc(F)c2)nc1` [Example 578, 6-(3-Fluorophenyl)-N-(2-(methylamino)ethyl)nicotinamide hydrochloride]: the pIC50 was 6.12.

As to `CC(C)OCCNCCNC(=O)c1ccc(-c2cccc(F)c2)nc1` [Example 583, 6-(3-Fluorophenyl)-N-(2-(2-isopropoxyethylamino)ethyl)nicotinamide], the pIC50 was 6.56.

As to `O=C(NCCN1CCC(O)CC1)c1ccc(-c2cccc(F)c2)nc1` [Example 575, 6-(3-Fluorophenyl)-N-[2-(4-hydroxypiperidin-1-yl)ethyl]nicotinamide], the pIC50 is 6.79.

As for `O=C(O)CCNC(=O)c1ccc(-c2cccc(F)c2)nc1` [Example 581, N-{[6-(3-Fluorophenyl)pyridin-3-yl]carbonyl}-beta-alanine], the pIC50 is 6.71.

As to `O=C(NCCO)c1ccc(-c2cccc(F)c2)nc1` [Example 577, 6-(3-Fluorophenyl)-N-(2-hydroxyethyl)nicotinamide], the pIC50 is 6.56.

As for `O=C(N[C@@H]1C[C@H]2CC[C@@H](C1)N2)c1ccc(-c2cccc(F)c2)nc1` [Example 587, N-[(3-exo)-8-azabicyclo[3.2.1]oct-3-yl]-6-(3-fluorophenyl)nicotinamide], the pIC50 is 7.41.

Take `CCCN1[C@@H]2CC[C@H]1C[C@@H](NC(=O)c1ccc(-c3cccc(F)c3)nc1)C2` [Example 585, 6-(3-Fluorophenyl)-N-[(3-endo)-8-propyl-8-azabicyclo[3.2.1]oct-3-yl]nicotinamide]: the pIC50 was 6.75.

Turning to `CC(C)S(=O)(=O)N1[C@@H]2CC[C@H]1C[C@H](NC(=O)c1ccc(-c3cccc(F)c3)nc1)C2` [Example 591, 6-(3-Fluorophenyl)-N-[(3-exo)-8-(isopropylsulfonyl)-8-azabicyclo[3.2.1]oct-3-yl]nicotinamide], the pIC50 was 8.42.

For `CC(=O)N1CCC(CNC(=O)c2ccc(-c3cc(F)ccc3O)nc2)CC1` [Example 565, N-[(1-Acetylpiperidin-4-yl)methyl]-6-(5-fluoro-2-hydroxyphenyl)nicotinamide], the pIC50 was 6.94.

For the origin of these results see patent publication US20110306597A1, “Nicotinamide Derivatives” (priority 2008, published 2011).
